Experimental data reported in the Kinase Knowledgebase extract (Sharma et al. 2016).
Where “and” joins values, the source holds several entries; their conditions need not be identical. Equal entries are not always repeated.

Target: ROCK2 (human) (UniProt O75116)
Assay: Inhibition of ROCK2 Kinase Activity

Sequence of ROCK2 (human) (O75116 whole entry, looked up): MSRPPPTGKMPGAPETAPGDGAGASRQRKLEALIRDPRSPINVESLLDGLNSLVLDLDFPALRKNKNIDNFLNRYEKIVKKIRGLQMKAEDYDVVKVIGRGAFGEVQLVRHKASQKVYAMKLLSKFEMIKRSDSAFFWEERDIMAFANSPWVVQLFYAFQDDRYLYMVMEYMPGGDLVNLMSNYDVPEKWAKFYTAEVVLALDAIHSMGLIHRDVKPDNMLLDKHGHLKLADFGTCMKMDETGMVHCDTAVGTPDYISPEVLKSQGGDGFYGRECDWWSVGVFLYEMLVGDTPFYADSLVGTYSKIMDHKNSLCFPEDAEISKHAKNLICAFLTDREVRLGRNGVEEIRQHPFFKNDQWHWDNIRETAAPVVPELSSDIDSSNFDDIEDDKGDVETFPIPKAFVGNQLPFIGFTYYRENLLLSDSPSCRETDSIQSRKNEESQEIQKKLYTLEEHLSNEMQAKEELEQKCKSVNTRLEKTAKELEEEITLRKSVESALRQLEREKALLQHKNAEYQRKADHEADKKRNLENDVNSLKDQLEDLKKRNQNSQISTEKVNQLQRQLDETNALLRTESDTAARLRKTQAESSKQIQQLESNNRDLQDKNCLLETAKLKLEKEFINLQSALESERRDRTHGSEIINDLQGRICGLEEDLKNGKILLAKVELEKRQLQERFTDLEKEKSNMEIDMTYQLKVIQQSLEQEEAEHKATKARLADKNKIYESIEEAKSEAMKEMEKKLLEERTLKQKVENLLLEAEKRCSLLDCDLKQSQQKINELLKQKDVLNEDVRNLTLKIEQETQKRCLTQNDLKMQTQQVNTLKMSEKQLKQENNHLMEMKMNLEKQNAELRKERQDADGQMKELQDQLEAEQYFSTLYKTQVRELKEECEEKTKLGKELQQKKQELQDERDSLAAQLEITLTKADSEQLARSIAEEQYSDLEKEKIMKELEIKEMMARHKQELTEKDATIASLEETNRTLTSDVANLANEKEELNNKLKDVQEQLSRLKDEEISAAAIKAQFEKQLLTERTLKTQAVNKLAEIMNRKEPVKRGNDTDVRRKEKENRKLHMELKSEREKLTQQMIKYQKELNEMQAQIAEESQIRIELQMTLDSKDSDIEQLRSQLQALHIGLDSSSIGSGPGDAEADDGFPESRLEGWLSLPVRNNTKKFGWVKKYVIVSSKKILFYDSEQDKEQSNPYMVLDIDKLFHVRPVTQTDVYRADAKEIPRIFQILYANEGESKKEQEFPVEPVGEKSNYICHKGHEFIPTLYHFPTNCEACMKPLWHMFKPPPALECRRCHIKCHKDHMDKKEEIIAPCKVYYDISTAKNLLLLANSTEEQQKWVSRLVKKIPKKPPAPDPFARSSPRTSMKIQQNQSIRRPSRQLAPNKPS

CCC(N)[C@]1(CCCC(F)(F)F)CC[C@H](Oc2cc3cc[nH]c(=O)c3cc2Cl)CC1 (some centres undefined) and CCCC[C@]1(C(N)CC)CC[C@@H](Oc2cc3cc[nH]c(=O)c3cc2Cl)CC1 (some centres undefined) cannot be ordered by IC50: ≤ 10 nM for the first, ≤ 10 nM for the second.

CC[C@]1(C(N)CF)CC[C@@H](Oc2cc3cc[nH]c(=O)c3cc2Cl)CC1 (some centres undefined) and CC[C@]1(C(N)CF)CC[C@H](Oc2cc3cc[nH]c(=O)c3cc2Cl)CC1 (some centres undefined) cannot be ordered by IC50: ≤ 10 nM for the first, 10 to 100 nM for the second.

Compared with CCC(N)[C@]1(CC)CC[C@H](Oc2cc3cc[nH]c(=O)c3cc2C)CC1 (some centres undefined), CC[C@]1(C(C)N)CC[C@@H](Oc2cc3cc[nH]c(=O)c3cc2C)CC1 (some centres undefined) is lower in IC50: 100 to 1000 nM for the first, 10 to 100 nM for the second.

CCC[C@]1(C(C)N)CC[C@@H](Oc2cc3cc[nH]c(=O)c3cc2Cl)CC1 (some centres undefined) and CCCC1(C(N)CC)CCC(Oc2cc3cc[nH]c(=O)c3cc2Cl)CC1 (centres undefined) cannot be ordered by IC50: ≤ 10 nM for the first, ≤ 10 nM for the second.

CCC(N)[C@]1(CC)CC[C@H](Oc2cc3ccncc3cc2C)CC1 (some centres undefined) and CC[C@]1(C(C)N)CC[C@@H](Oc2cc3ccncc3cc2Br)CC1 (some centres undefined) fall in the same range of IC50: 100 to 1000 nM for the first, 100 to 1000 nM for the second.

CC(C)CC(N)[C@]1(CC2CC2)CC[C@H](Oc2cc3cc[nH]c(=O)c3cc2Cl)CC1 (some centres undefined) and CC(C)C(N)C1(CC2CC2)CCC(Oc2cc3cc[nH]c(=O)c3cc2Cl)CC1 (centres undefined) cannot be ordered by IC50: ≤ 10 nM for the first, ≤ 10 nM for the second.

First: CCC(N)[C@]1(C2CCOCC2)CC[C@H](Oc2cc3cc[nH]c(=O)c3cc2Cl)CC1 (some centres undefined)
Second: CCC(N)[C@]1(C2CCOCC2)CC[C@@H](Oc2cc3cc[nH]c(=O)c3cc2Cl)CC1 (some centres undefined)
The IC50 of the first is lower: ≤ 10 nM for the first, 100 to 1000 nM for the second. The first is the more potent here.

Compared with CC(C)C(N)C1(C(C)C)CCC(Oc2cc3cc[nH]c(=O)c3cc2Cl)CC1 (centres undefined), CCCC(N)[C@]1(C(C)C)CC[C@H](Oc2cc3cc[nH]c(=O)c3cc2Cl)CC1 (some centres undefined) is lower in IC50: 100 to 1000 nM for the first, 10 to 100 nM for the second. The second is the more potent here.

CCC(N)[C@]1(C2CCS(=O)(=O)CC2)CC[C@H](Oc2cc3cc[nH]c(=O)c3cc2Cl)CC1 (some centres undefined) and CCC(N)[C@]1(C2CC2)CC[C@H](Oc2cc3cc[nH]c(=O)c3cc2Cl)CC1 (some centres undefined) cannot be ordered by IC50: ≤ 10 nM for the first, ≤ 10 nM for the second.

CC(N)[C@]1(C2CC2)CC[C@H](Oc2cc3cc[nH]c(=O)c3cc2Cl)CC1 (some centres undefined) and CC(N)C1(C2CCC2)CCC(Oc2cc3cc[nH]c(=O)c3cc2Cl)CC1 (centres undefined) fall in the same range of IC50: 10 to 100 nM for the first, 10 to 100 nM for the second.

CC[C@@H](N)[C@]1(CC)CC[C@H](Oc2cc3cc[nH]c(=O)c3cc2Cl)CC1 and CC[C@H](N)[C@]1(CC)CC[C@H](Oc2cc3cc[nH]c(=O)c3cc2Cl)CC1 cannot be ordered by IC50: ≤ 10 nM for the first, ≤ 10 nM for the second.

CCC(N)[C@]1(CC)CC[C@H](Oc2cc3cc[nH]c(=O)c3cc2F)CC1 (some centres undefined) and CC[C@]1(C(C)N)CC[C@@H](Oc2cc3cc[nH]c(=O)c3cc2F)CC1 (some centres undefined) fall in the same range of IC50: 10 to 100 nM for the first, 10 to 100 nM for the second.

CCCCNC(CC)[C@]1(CC)CC[C@H](Oc2cc3cc[nH]c(=O)c3cc2Cl)CC1 (some centres undefined) and CCC(NCC(C)C)[C@]1(CC)CC[C@H](Oc2cc3cc[nH]c(=O)c3cc2Cl)CC1 (some centres undefined) fall in the same range of IC50: 100 to 1000 nM for the first, 100 to 1000 nM for the second.

CCC(N)[C@]1(C2CCSCC2)CC[C@H](Oc2cc3cc[nH]c(=O)c3cc2Cl)CC1 (some centres undefined) and CCC(N)C1(C2CCCC2)CCC(Oc2cc3cc[nH]c(=O)c3cc2Cl)CC1 (centres undefined) cannot be ordered by IC50: ≤ 10 nM for the first, 10 to 100 nM for the second.

CCOC[C@]1(C(N)CC)CC[C@@H](Oc2cc3cc[nH]c(=O)c3cc2Cl)CC1 (some centres undefined) and CCC(N)[C@]1(CC)CC[C@H](Oc2cc3cc[nH]c(=O)c3cc2Cl)CC1 (some centres undefined) cannot be ordered by IC50: ≤ 10 nM for the first, ≤ 10 nM for the second.

CCOC1(C(N)CC)CCC(Oc2cc3cc[nH]c(=O)c3cc2Cl)CC1 (centres undefined) and CCC(N)[C@]1(OC)CC[C@H](Oc2cc3cc[nH]c(=O)c3cc2Cl)CC1 (some centres undefined) fall in the same range of IC50: 10 to 100 nM for the first, 10 to 100 nM for the second.

First: C[C@]1(C(N)c2ccccc2)CC[C@@H](Oc2cc3cc[nH]c(=O)c3cc2Cl)CC1 (some centres undefined)
Second: NC(c1ccccc1)[C@]1(CC2CC2)CC[C@H](Oc2cc3cc[nH]c(=O)c3cc2Cl)CC1 (some centres undefined)
The IC50 of the first is lower: 10 to 100 nM for the first, 100 to 1000 nM for the second.

Compared with CCC[C@]1(C(C)N)CC[C@@H](Oc2cc3ccnc(N)c3cc2Cl)CC1 (some centres undefined), CCC1(C(N)CCOC)CCC(Oc2cc3cc[nH]c(=O)c3cc2Cl)CC1 (centres undefined) is lower in IC50: 100 to 1000 nM for the first, 10 to 100 nM for the second. The second is the more potent here.

CC[C@]1(C(N)C2CC2)CC[C@@H](Oc2cc3cc[nH]c(=O)c3cc2Cl)CC1 (some centres undefined) and C[C@]1(C(N)C2CC2)CC[C@@H](Oc2cc3cc[nH]c(=O)c3cc2Cl)CC1 (some centres undefined) cannot be ordered by IC50: ≤ 10 nM for the first, ≤ 10 nM for the second.

NC(c1ccccc1)C1(C2CCCC2)CCC(Oc2cc3cc[nH]c(=O)c3cc2Cl)CC1 (centres undefined) and CCC(N)[C@]1(C2CCCCC2)CC[C@H](Oc2cc3cc[nH]c(=O)c3cc2Cl)CC1 (some centres undefined) fall in the same range of IC50: 10 to 100 nM for the first, 10 to 100 nM for the second.

First: NC(C(F)(F)F)C1(CC2CC2)CCC(Oc2cc3cc[nH]c(=O)c3cc2Cl)CC1 (centres undefined)
Second: NC(C1CC1)[C@]1(CCCC(F)(F)F)CC[C@H](Oc2cc3cc[nH]c(=O)c3cc2Cl)CC1 (some centres undefined)
The IC50 of the first is higher: 100 to 1000 nM for the first, ≤ 10 nM for the second.

CCC(N)[C@]1(CC)CC[C@H](Oc2c(F)cc3c(=O)[nH]ccc3c2C)CC1 (some centres undefined) and CC[C@]1(C(C)N)CC[C@@H](Oc2c(F)cc3c(=O)[nH]ccc3c2C)CC1 (some centres undefined) fall in the same range of IC50: 100 to 1000 nM for the first, 100 to 1000 nM for the second.

CCC(N)[C@]1(CC)CC[C@H](Oc2c(C)cc3c(=O)[nH]ccc3c2C)CC1 (some centres undefined) and CCC(N)[C@]1(CC)CC[C@H](Oc2c(C)cc3cnccc3c2C)CC1 (some centres undefined) fall in the same range of IC50: 100 to 1000 nM for the first, 100 to 1000 nM for the second.

CCC(N)[C@]1(OC)CC[C@@H](Oc2cc3cc[nH]c(=O)c3cc2Cl)CC1 (some centres undefined) and CCC(N)[C@]1(C)CC[C@H](Oc2cc3cc[nH]c(=O)c3cc2Cl)CC1 (some centres undefined) cannot be ordered by IC50: 10 to 100 nM for the first, ≤ 10 nM for the second.

NC(C1CC1)[C@]1(C2CC2)CC[C@H](Oc2cc3cc[nH]c(=O)c3cc2Cl)CC1 (some centres undefined) and CC[C@@H](N)[C@]1(C2CCOCC2)CC[C@H](Oc2cc3cc[nH]c(=O)c3cc2Cl)CC1 cannot be ordered by IC50: ≤ 10 nM for the first, ≤ 10 nM for the second.

CCCC(N)[C@]1(C)CC[C@H](Oc2cc3cc[nH]c(=O)c3cc2Cl)CC1 (some centres undefined) and CCC(N)C1(C)CCC(Oc2cc3cc[nH]c(=O)c3cc2Cl)CC1 (centres undefined) cannot be ordered by IC50: ≤ 10 nM for the first, 10 to 100 nM for the second.

CCC(NCC1CC1)[C@]1(CC)CC[C@H](Oc2cc3cc[nH]c(=O)c3cc2Cl)CC1 (some centres undefined) and CCC(NCc1ccccc1)[C@]1(CC)CC[C@H](Oc2cc3cc[nH]c(=O)c3cc2Cl)CC1 (some centres undefined) fall in the same range of IC50: 100 to 1000 nM for the first, 100 to 1000 nM for the second.

CCC(N)[C@]1(CC2CCOCC2)CC[C@H](Oc2cc3cc[nH]c(=O)c3cc2Cl)CC1 (some centres undefined) and NC(C1CC1)[C@]1(CC2CCOCC2)CC[C@H](Oc2cc3cc[nH]c(=O)c3cc2Cl)CC1 (some centres undefined) cannot be ordered by IC50: 10 to 100 nM for the first, ≤ 10 nM for the second.

CCC(N)[C@]1(C(C)C)CC[C@H](Oc2cc3c(F)c[nH]c(=O)c3cc2Cl)CC1 (some centres undefined) and CC[C@H](N)[C@]1(C)CC[C@H](Oc2cc3cc[nH]c(=O)c3cc2Cl)CC1 cannot be ordered by IC50: 10 to 100 nM for the first, ≤ 10 nM for the second.

First: CC(C)C1(C(N)c2cncs2)CCC(Oc2cc3cc[nH]c(=O)c3cc2Cl)CC1 (centres undefined)
Second: CC(C)C1(C(N)c2nccs2)CCC(Oc2cc3cc[nH]c(=O)c3cc2Cl)CC1 (centres undefined)
The IC50 of the first is lower: 10 to 100 nM for the first, 100 to 1000 nM for the second.

CC[C@]1(C(C)N)CC[C@@H](Oc2cc3c(Cc4ccccc4)c[nH]c(=O)c3cc2Cl)CC1 (some centres undefined) and CCCC[C@]1(C(N)CC)CC[C@@H](Oc2cc3c(Cc4ccccc4)c[nH]c(=O)c3cc2Cl)CC1 (some centres undefined) fall in the same range of IC50: 100 to 1000 nM for the first, 100 to 1000 nM for the second.

CCC(N)C1(Cc2ccccc2)CCC(Oc2cc3cc[nH]c(=O)c3cc2Cl)CC1 (centres undefined) and CC[C@@H](N)[C@]1(C)CC[C@H](Oc2cc3cc[nH]c(=O)c3cc2Cl)CC1 cannot be ordered by IC50: 10 to 100 nM for the first, ≤ 10 nM for the second.

CC[C@]1(C(C)N)CC[C@@H](Oc2ccc3cnccc3c2Cl)CC1 (some centres undefined) and CC[C@]1(C(C)N)CC[C@@H](Oc2c(F)cc3cnccc3c2C)CC1 (some centres undefined) fall in the same range of IC50: 100 to 1000 nM for the first, 100 to 1000 nM for the second.

First: CCC(N)[C@]1(CC)CC[C@H](Oc2c(F)cc3cnccc3c2C)CC1 (some centres undefined)
Second: CC[C@H](N)[C@]1(C2CCOCC2)CC[C@H](Oc2cc3cc[nH]c(=O)c3cc2Cl)CC1
The IC50 of the first is higher: 100 to 1000 nM for the first, 10 to 100 nM for the second.

In the case of NC(C1CC1)C1(CC2CC2)CCC(Oc2cc3cc[nH]c(=O)c3cc2Cl)CC1 (centres undefined), the IC50 is reported as 10 to 100 nM and ≤ 10 nM.
CCC(N)C1(COC(C)C)CCC(Oc2cc3cc[nH]c(=O)c3cc2Cl)CC1 (centres undefined) was tested, and the IC50 was 10 to 100 nM and 100 to 1000 nM.
With CCC1(C(C)N)CCC(Oc2cc3cc[nH]c(=O)c3cc2Cl)CC1 (centres undefined) the IC50 was 10 to 100 nM and ≤ 10 nM.
In the case of CC(N)C1(CC2CC2)CCC(Oc2cc3cc[nH]c(=O)c3cc2Cl)CC1 (centres undefined), the IC50 is reported as 10 to 100 nM and ≤ 10 nM.
For CCCC(N)C1(CC2CC2)CCC(Oc2cc3cc[nH]c(=O)c3cc2Cl)CC1 (centres undefined), the IC50 was 10 to 100 nM and ≤ 10 nM.
CCC(N)C1(C(F)(F)F)CCC(Oc2cc3cc[nH]c(=O)c3cc2Cl)CC1 (centres undefined) was tested, and the IC50 was 100 to 1000 nM and ≤ 10 nM.
CCC(N)C1(C(C)C)CCC(Oc2cc3cc[nH]c(=O)c3cc2Cl)CC1 (centres undefined) was tested, and the IC50 was ≤ 10 nM and 10 to 100 nM.
For CCCC1(C(N)C2CC2)CCC(Oc2cc3cc[nH]c(=O)c3cc2Cl)CC1 (centres undefined), the IC50 was ≤ 10 nM and 10 to 100 nM.
In the case of CCC(N)C1(C2CCC2)CCC(Oc2cc3cc[nH]c(=O)c3cc2Cl)CC1 (centres undefined), the IC50 is reported as 10 to 100 nM and 100 to 1000 nM.
With CCC(N)C1(CC2CC2)CCC(Oc2cc3cc[nH]c(=O)c3cc2Cl)CC1 (centres undefined) the IC50 was 10 to 100 nM and ≤ 10 nM.
CCC(N)C1(CC(C)C)CCC(Oc2cc3cc[nH]c(=O)c3cc2Cl)CC1 (centres undefined) was tested, and the IC50 was 10 to 100 nM and 100 to 1000 nM.
